Where “and” joins values, the source holds several entries; their conditions need not be identical. Equal entries are not always repeated. Inconclusive results and toxic doses are left out. Rule for the calls: active = survival T/C of 150% or more; inactive = T/C below 125% in these data.
Test system: BALB/c mice, Madison 109 lung carcinoma i.m., survival
Test: NCI In Vivo Anticancer Drug Screen. Data for tumor model Madison 109 Lung Carcinoma (intramuscular) in BALB/CM mice
Conditions: endpoint: median survival time, schedule: Q01DX009 (ip), higher = longer survival
Method: The antitumor activity of compounds was measured in mice bearing transplantable tumors. Survival or tumor size were measured and the results are expressed as the measurement made in the treated group (T) divided by the measurement made in the vehicle treated control group (C). The tumor model used in this assay is Madison 109 Lung Carcinoma (intramuscular) in BALB/CM mice

[1] = dose: 8.0 mg/kg/injection, vehicle: saline with Tween-80
[2] = dose: 16.0 mg/kg/injection, vehicle: saline with Tween-80
[3] = dose: 32.0 mg/kg/injection, vehicle: saline with Tween-80
[4] = dose: 64.0 mg/kg/injection, vehicle: saline with Tween-80
[5] = dose: 100.0 mg/kg/injection, vehicle: saline with Tween-80
[6] = dose: 200.0 mg/kg/injection, vehicle: saline with Tween-80
[7] = dose: 400.0 mg/kg/injection, vehicle: saline with Tween-80
[8] = dose: 800.0 mg/kg/injection, vehicle: saline with Tween-80
[9] = dose: 1600.0 mg/kg/injection, vehicle: saline with Tween-80
[10] = dose: 128.0 mg/kg/injection, vehicle: saline with Tween-80
[11] = dose: 256.0 mg/kg/injection, vehicle: saline with Tween-80
[12] = dose: 512.0 mg/kg/injection, vehicle: saline with Tween-80
[13] = dose: 50.0 mg/kg/injection, vehicle: saline with Tween-80
[14] = dose: 25.0 mg/kg/injection, vehicle: saline with Tween-80

Measured: T/C

Nc1ncnc2nc[nH]c12
inactive: dose: 2.0 mg/kg/injection, vehicle: saline with Tween-80 120 % of control | dose: 4.0 mg/kg/injection, vehicle: saline with Tween-80 119 % of control | [1] 101 % of control and 108 % of control | [2] 90 % of control and 117 % of control and 120 % of control

O=S(=O)(O)O
inactive: [1] 109 % of control | [2] 108 % of control | [3] 111 % of control | [4] 112 % of control

CCN(CC)CCOc1ccc2c(c1)C(=O)c1cc(OCCN(CC)CC)ccc1-2
inactive: dose: 16.0 mg/kg/injection, vehicle: saline 101 % of control | dose: 32.0 mg/kg/injection, vehicle: saline 108 % of control | dose: 62.0 mg/kg/injection, vehicle: saline 103 % of control

Nc1n[nH]c(N)n1
inactive: [5] 93 % of control | [6] 101 % of control | [7] 104 % of control | [8] 110 % of control | [9] 108 % of control

Cc1c[nH]c(=O)[nH]c1=O
inactive: [3] 115 % of control and 118 % of control | [4] 97 % of control and 112 % of control | [10] 86 % of control and 115 % of control | [11] 106 % of control and 118 % of control | [12] 101 % of control and 102 % of control

CCOC(=O)C(C)(C)Oc1ccc(Cl)cc1
inactive: [13] 112 % of control | [5] 109 % of control | [6] 116 % of control | [7] 109 % of control

COC1C(O)CC(OC2CC(Oc3cc4cc5c(c(O)c4c(O)c3C)C(=O)[C@@H](OC3CC(OC4CC(OC6CC(C)(O)C(OC(C)=O)C(C)O6)C(O)C(C)O4)C(O)C(C)O3)[C@H]([C@H](OC)C(=O)[C@@H](O)[C@@H](C)O)C5)OC(C)C2OC(C)=O)OC1C (some centres undefined)
inactive: dose: 0.01 mg/kg/injection, vehicle: saline 100 % of control | dose: 0.03 mg/kg/injection, vehicle: saline 102 % of control | dose: 0.06 mg/kg/injection, vehicle: saline 105 % of control | dose: 0.12 mg/kg/injection, vehicle: saline 95 % of control

Cc1cn(C2CC(O)C(CO)O2)c(=O)[nH]c1=O (centres undefined)
inactive: [3] 94 % of control and 101 % of control | [4] 103 % of control and 108 % of control | [5] 108 % of control and 112 % of control | [10] 102 % of control and 105 % of control | [6] 100 % of control and 102 % of control | [11] 95 % of control and 97 % of control | [7] 101 % of control and 103 % of control | [12] 102 % of control and 103 % of control | [8] 106 % of control and 107 % of control | [9] 96 % of control and 99 % of control

CN(C)/N=N/c1nc[nH]c1C(N)=O
inactive: [14] 124 % of control | [13] 119 % of control | [5] 108 % of control

COc1cccc2c1C(=O)c1c(O)c3c(c(O)c1C2=O)C[C@@](O)(C(C)=O)C[C@@H]3OC1CC(N)C(O)C(C)O1 (some centres undefined)
inactive: dose: 0.12 mg/kg/injection, vehicle: water 110 % of control | dose: 0.25 mg/kg/injection, vehicle: water 102 % of control | dose: 0.5 mg/kg/injection, vehicle: water 118 % of control | dose: 1.0 mg/kg/injection, vehicle: water 118 % of control

Nc1ccc(S(=O)(=O)c2ccc(N)cc2)cc1
inactive: dose: 12.5 mg/kg/injection, vehicle: saline with Tween-80 102 % of control | [14] 103 % of control and 115 % of control | [13] 113 % of control and 117 % of control | [5] 112 % of control | [6] 96 % of control and 102 % of control | [7] 108 % of control

Nc1ncnc2c1ncn2C1OC(COP(=O)(O)O)C(O)C1O (centres undefined)
inactive: dose: 100.0 mg/kg/injection, vehicle: saline 103 % of control and 107 % of control | dose: 200.0 mg/kg/injection, vehicle: saline 102 % of control and 115 % of control | dose: 400.0 mg/kg/injection, vehicle: saline 112 % of control

Nc1ccc(C(=O)O)c(O)c1
inactive: dose: 37.5 mg/kg/injection, vehicle: saline with Tween-80 116 % of control | dose: 75.0 mg/kg/injection, vehicle: saline with Tween-80 116 % of control | dose: 150.0 mg/kg/injection, vehicle: saline with Tween-80 108 % of control | dose: 300.0 mg/kg/injection, vehicle: saline with Tween-80 101 % of control

— PubChem BioAssay AID302 (DTP/NCI, 2004)
